# Test results reported in patent US20080274976A1 (priority 2002, published 2008).
# Where a SMILES comes first, the peptide text is derived from it. Bridges are numbered along the chain shown (N, C = ends). [ ]: non-standard residue; d: D form. Hyp = O=C(O)[C@@H]1C[C@@H](O)CN1
# What was measured:
# [1] = target: Shaker-Δ6-46 (Drosophila melanogaster, UniProt P08510, DEL6-46); format: cell-based
# [2] = test system: TSha1 K^+ channel; format: cell-based, trout
# Chain of Shaker-Δ6-46 (P08510 1-655 with tags or gaps DEL6-46): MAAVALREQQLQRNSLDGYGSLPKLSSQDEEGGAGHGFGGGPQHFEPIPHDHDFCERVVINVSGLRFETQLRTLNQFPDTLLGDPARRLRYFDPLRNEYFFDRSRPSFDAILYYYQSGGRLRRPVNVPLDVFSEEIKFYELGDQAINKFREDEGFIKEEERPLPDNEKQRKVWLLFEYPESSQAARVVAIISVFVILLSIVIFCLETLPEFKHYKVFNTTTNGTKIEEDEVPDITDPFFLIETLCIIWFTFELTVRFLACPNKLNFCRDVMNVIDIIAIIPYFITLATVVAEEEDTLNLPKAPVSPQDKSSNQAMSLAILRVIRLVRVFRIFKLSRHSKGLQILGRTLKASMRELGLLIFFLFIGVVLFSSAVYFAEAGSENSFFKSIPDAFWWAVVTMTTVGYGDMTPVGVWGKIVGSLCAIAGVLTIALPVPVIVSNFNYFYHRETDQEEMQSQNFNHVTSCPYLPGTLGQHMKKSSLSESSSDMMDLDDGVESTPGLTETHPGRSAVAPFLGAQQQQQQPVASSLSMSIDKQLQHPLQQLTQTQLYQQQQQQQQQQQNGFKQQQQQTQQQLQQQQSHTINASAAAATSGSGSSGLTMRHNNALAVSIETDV
compound,measurement,setting,value
"CC(C)C[C@@H]1NC(=O)[C@H](CO)NC(=O)[C@@H]2CSSC[C@@H]3NC(=O)[C@@H]4C[C@@H](O)CN4C(=O)[C@H](CC(N)=O)NC(=O)[C@H](CCCNC(=N)N)NC(=O)[C@H](CCCCN)NC(=O)[C@H](CSSC[C@H](NC(=O)[C@H](CO)NC(=O)[C@@H]4C[C@@H](O)CN4C(=O)[C@@H](N)CC(C)C)C(=O)N2)NC(=O)[C@H](C)NC(=O)[C@@H]2C[C@@H](O)CN2C(=O)[C@H](C(C)C)NC(=O)[C@@H]2C[C@@H](O)CN2C(=O)[C@H](CSSC[C@@H](C(=O)N[C@H](C(N)=O)[C@@H](C)O)NC3=O)NC(=O)[C@H](CC(C)C)NC(=O)[C@H](CCCNC(=N)N)NC(=O)[C@H](CC(C)C)NC(=O)[C@H](CC(N)=O)NC1=O [κM-conotoxin RIIIK, LOSCCSLNLRLCOVOACKRNOCCT-NH2] (H-L[Hyp]SCCSLNLRLC[Hyp]V[Hyp]ACKRN[Hyp]CCT-NH2; disulfide 4-17, 5-22, 12-23)","affinity for the open state (0 mV), times lower compared to the closed state",[1],about three to four
same,k^(C)off,[1],6.0 ± 3.0 s⁻¹
same,k^(C)on,[1],4e+06 ± 700000 M⁻¹ s⁻¹
same,k^(O)off,[1],90 ± 30 s⁻¹
same,k^(O)on,[1],3e+07 ± 7e+06 M⁻¹ s⁻¹
same,"k^(C)on, times higher than in the Shaker-Δ6-46 channel",[2],about four
same,"k^(O)off for Tsha1, times smaller than in the Shaker-Δ6-46 channel",[2],about 20 times
same,"k^(O)on in Tsha1, times higher than in the Shaker-Δ6-46 channel",[2],three
